Measurements as given in patent US12410124B2 (priority 2019, dated 2025).

How the values were obtained:
Format in all cases: in vivo
substantia nigra pp38 = assay: Substantia nigra pp38 protein expression in MPTP Parkinson's disease model mouse (immunofluorescence); details: percentage of mean intensity of blank control group, gavage 21 days after MPTP modeling
Procedure: (§1) Neurotoxins can be used to establish PD animal models. Currently, 1-methyl-4-phenyl-1,2,3,6-tetrahydropyridine (MPTP) is the sole synthetic toxin which is recognized to induce PD symptoms in human and non-human primates and in mice. Using MPTP subacute modeling method, C57BL/6J male mice were intraperitoneally injected with MPTP 30 mg/kg, once a day for 5 consecutive days. The experiment animals were divided into blank control group, MPTP model group, and compound treatment group. For the […] compound treatment group, the compound was administrated by gavage for 21 consecutive days after the completion of modeling; for the MPTP model group, the normal saline was administrated by gavage for 21 consecutive days after the completion of modeling; and for the blank control group, the normal saline was first intraperitoneally injected for 5 days, and then administrated by gavage for 21 days.
The p38 mitogen-activated protein kinase (p38 MAPK) is expressed in both neurons and glial cells, and is the intersection point of neuron-glial cell network information regulations. The activation of p38 signaling pathway is an important initiator of neuronal degeneration, which continuously induces the apoptosis of dopaminergic neurons in multiple ways. It has become a research hotspot for the treatment of PD. Studies have shown that the protective mechanism of CAPE against the death of primary cultured cerebellar granule neurons induced by glutamate lies in inhibiting the activation of p38 phosphorylation and in turn inhibiting the activation of the caspase 3 apoptotic pathway to prevent neuronal apoptosis. Therefore, the MPTP-induced PD mouse model can be used to investigate the inhibitory effect of the target compounds on the activation of p38 phosphorylation on the overall animal level.
(§2) Half of experiment mice in each group were taken to separate the midbrain after perfusion and fixation. The tissue was trimmed, and the substantia nigra-striatum area was taken to prepare paraffin sections. The double immunofluorescence staining for TH and phosphorylated p38 was performed to observe the coexpression of TH and phosphorylated p38, for the statistics of the change in the phosphorylated p38 protein expression. The experiment included blank control group, MPTP model group, positive control group (caffeic acid phenethyl ester, CAPE), prototype control group (styryl sulfone compounds 3B, 3C, 3D, and 3G, whose structures are shown as above), and target compound group.

hippocampus CD11b = assay: Number of hippocampus microglial cells with CD11b positive expression in MPTP Parkinson's disease model mouse (immunohistochemistry); details: for Positive cell number (microglial cells with CD11b positive expression): hippocampus, MPTP Parkinson's disease model mouse, immunohistochemistry
Procedure: as §1
(§3) Neuron-glial cell network homeostasis disorder is an important factor for the selective and progressive death of substantia nigra dopaminergic neurons in PD. In the neurotoxic effect of MPTP, the excessive activations of microglial cells and astrocytes produce a variety of inflammatory cytokines and reactive oxygen species (ROS). These inflammatory factors and ROS amplify their respective toxicities and mediate malignant feedback loop, causing a cascade inflammation response and aggravating the pathological process of PD. CD11b and GFAP are the marker proteins for activations of microglial cells and astrocytes, respectively. Therefore, the effect of the target compounds on the activations of the microglial cells and astrocytes in the substantia nigra, hippocampus, and midbrain areas of MPTP-induced PD mice can be investigated, to explore the mechanism of the anti-PD effect of the target compounds by inhibiting the neuroinflammation.
as §2, with “hippocampus” for “substantia nigra-striatum”, “CD11b immunohistochemical” for “double immunofluorescence”, “staining” for “staining for TH and phosphorylated p38”, “performed” for “performed to observe the coexpression of TH and phosphorylated p38,”, “number of microglial cells with CD11b positive” for “phosphorylated p38 protein”

hippocampus GFAP = assay: Number of hippocampus astrocytes with GFAP positive expression in MPTP Parkinson's disease model mouse (immunohistochemistry); details: for Positive cell number (astrocytes with GFAP positive expression): hippocampus, MPTP Parkinson's disease model mouse, immunohistochemistry
Procedure: as §1, §3
as §2, with “hippocampus” for “substantia nigra-striatum”, “GFAP immunohistochemical” for “double immunofluorescence”, “staining” for “staining for TH and phosphorylated p38”, “performed” for “performed to observe the coexpression of TH and phosphorylated p38,”, “number of astrocytes with GFAP positive” for “phosphorylated p38 protein”

HO-1 = assay: Midbrain HO-1 expression in MPTP Parkinson's disease model mouse (western blot); details: for Expression (HO-1/GAPDH): midbrain, MPTP Parkinson's disease model mouse, western blot
Procedure: as §1
(§4) Oxidative stress is an important pathogenic mechanism of PD. Dopaminergic neurons are more sensitive to oxidative stress and are more susceptible to oxidative stress damage. Heme oxygenase (HO-1), a phase II enzyme, is also a well-known antioxidase. It plays an important protective role by catalyzing the conversion of free radicals into non-toxic products and increasing their water solubility to facilitate the elimination of free radicals, and maintain the redox balance in the body. It plays an important role in the process of protecting cells against oxidative stress damage. The activation of p38 protein phosphorylation has a negative regulatory effect on phase II enzymes. […] Using HO-1 as an indicator, the inhibitory effect of the target compounds on MPTP-induced oxidative stress damage in PD mice can be investigated.
(§5) HO-1 is expressed in astrocytes, microglial cells, and neurons. The total proteins of the midbrain tissue of mice in each experiment group were extracted, to determine the expression of phase II enzyme HO-1 in the midbrain of mice by western blot using GAPDH as the internal reference. The experiment included blank control group, MPTP model group, positive control group (caffeic acid phenethyl ester, CAPE), prototype control group (styryl sulfone compounds 3B, 3C, 3D, and 3G, whose structures are shown as above), and target compound group.

GCLC = assay: Midbrain GCLC expression in MPTP Parkinson's disease model mouse (western blot); details: for Expression (GCLC/GAPDH): midbrain, MPTP Parkinson's disease model mouse, western blot
Procedure: as §1
as §4, with “Glutathione (GSH) is an important antioxidant substance in the cell, and glutamate cysteine ligase (GCL) is the rate-limiting enzyme for GSH synthesis, which is composed of catalytic subunit (GCLC) and regulatory subunit (GCLM). The increase of GCLC expression can promote the synthesis of GSH and enhance the ability of tissue cells against oxidative stress. GCL,” for “Heme oxygenase (HO-1),”, “enzyme,” for “enzyme, is also a well-known antioxidase. It”, “GCLC” for “HO-1”
as §5, with “GCLC” for “HO-1”, “3D),” for “3D,”

Molecule	Expression (Immunofluorescence intensity %) (substantia nigra pp38)	number of hippocampus microglial cells with CD11b positive expression compared with the styryl sulfone prototype compounds (hippocampus CD11b)	Positive cell number (microglial cells with CD11b positive expression) (hippocampus CD11b)	number of hippocampus astrocytes with GFAP positive expression compared with the styryl sulfone prototype compounds (hippocampus GFAP)	Positive cell number (astrocytes with GFAP positive expression) (hippocampus GFAP)	midbrain HO-1 expression compared with the styryl sulfone prototype compounds (HO-1)	Expression (HO-1/GAPDH) (HO-1)	midbrain GCLC expression compared with the styryl sulfone prototype compounds (GCLC)	Expression (GCLC/GAPDH) (GCLC)
CCN(CC)C(=O)Oc1ccc(/C=C/S(=O)(=O)CCCc2ccccc2)cc1OC(=O)N(CC)CC [Compound C1-1, (E)-4-[2-(3-phenylpropylsulfonyl)ethenyl]-1,2-phenylenebis(diethylcarbamate)]	108.71 ± 12.51%	significantly lower	7 ± 2	significantly lower	78 ± 3	significantly higher	0.88 ± 0.09	significantly higher	1.34 ± 0.08
CCN(CC)C(=O)Oc1ccc(/C=C/S(=O)(=O)Cc2ccc(C(C)(C)C)cc2)cc1OC(=O)N(CC)CC [Compound G1-1, (E)-4-{2-[(4-t-butylphenyl)mesyl]ethenyl}-1,2-phenylenebis(diethylcarbamate)]	82.16 ± 8.10%	significantly lower	6 ± 1	significantly lower	66 ± 4	significantly higher	1.35 ± 0.10	significantly higher	1.05 ± 0.04
COc1ccc(CC(=O)Oc2ccc(/C(C)=C/S(=O)(=O)/C=C/c3ccc(OC(=O)N(C)C)c(O[Si](C)(C)CCl)c3)cc2)cc1 [Compound P1-7, 4-{(E)-1-[(E)-3-(chloromethyldimethylsiloxy)-4-(N,N-dimethylcarbamoyloxy)styrylsulfonyl]prop-1-en-2-yl}phenyl-2-(4-methoxyphenyl) acetate]	77.29 ± 13.06%		8 ± 2		49 ± 4		0.71 ± 0.09		0.87 ± 0.08
O=C(/C=C/c1ccc(O)c(O)c1)OCCc1ccccc1 [Positive control group, caffeic acid phenethyl ester, reference compound]	139.72 ± 25.32%		24 ± 2		86 ± 2		0.52 ± 0.07		0.77 ± 0.06
CNC(=O)Oc1ccc(/C=C/S(=O)(=O)CC(Cl)c2ccc(Cl)c([N+](=O)[O-])c2)cc1O (centres unmarked) [Compound E2-2, (E)-4-{2-[2-chloro-2-(4-chloro-3-nitrophenyl)ethylsulfonyl]ethenyl}-2-hydroxyphenyl-N-methylcarbamate]	96.01 ± 10.37%		15 ± 2		50 ± 5		1.58 ± 0.08		1.48 ± 0.11
CC(C)N(c1ccc(CCS(=O)(=O)/C=C/c2ccc(OC(=O)N(C)c3ccc(I)cc3)c(OCCOCc3ccccc3)c2)cc1)C(C)C [Compound A1-3, (E)-2-(2-benzyloxyethoxy)-4-{2-[4-(N,N-diisopropylamino)phenylethylsulfonyl]ethenyl}phenyl-N-(4-iodophenyl)-N-methylcarbamate]	58.19 ± 12.07%		14 ± 2		55 ± 3		0.66 ± 0.05		0.84 ± 0.04
CC[Si](CC)(Oc1ccc(C(Cl)S(=O)(=O)/C=C/c2ccc(OC(=O)N3CC(C)OC(C)C3)c(OC(=O)c3cccc(Cl)c3OC)c2)cc1)c1ccccc1 (centres unmarked) [Compound R1-5, (E)-4-{2-[4-(diethylphenylsiloxy)phenylchloromesyl]ethenyl}-2-(3-chloro-2-methoxybenzoyloxy)phenyl-2,6-dimethylmorpholine-4-carboxylate]	101.93 ± 7.44%		17 ± 2		80 ± 2		0.87 ± 0.06		1.02 ± 0.09
(E)-2-[(methylamino)methoxy]-4-{2-[1-(4′-nitro-[1,1′-biphenyl]-4-yl)ethylsulfonyl]ethenyl}phenylcarbamate [Compound M1-3]	100.22 ± 14.12%		12 ± 2		57 ± 3		0.80 ± 0.09		0.82 ± 0.07
O=S(=O)(/C=C/c1ccc(O)c(O)c1)Cc1ccc(C(F)(F)F)cc1 [Compound 3B, (E)-4-{2-[(4-trifluoromethylphenyl)mesyl]ethenyl}benzene-1,2-diol, reference compound]	134.70 ± 31.07%		16 ± 2		118 ± 8		0.56 ± 0.03		0.33 ± 0.04
